Results as given in article PMC12135518 (Antimicrobial Agents and Chemotherapy, 2025).
Like-named read-outs stand apart in the source and are kept apart here.

Columns and labels:
[1] = at equivalent dosages, cited from earlier work
Text: Different pharmacokinetic characteristics are anticipated in renal transplant patients depending on the unique physiologic status of these patients ([18], [19]). Moreover, in the early postoperative phase following kidney transplantation, patients undergo gradual recovery of renal function, accompanied by increased urine output and a rapid decline in serum creatinine levels, typically returning to normal within 2–4 weeks ([20][–][22]). […] In addition, renal transplant patients are mor ...

[2] = Population pharmacokinetic modeling of teicoplanin plasma concentrations (two-compartment model, Phoenix NLME, FOCE-ELS); type: in vivo, renal transplant patients
Method: This prospective study was conducted at the kidney transplantation department in the Second Xiangya Hospital of Central South University (Changsha, China). […] The exclusion criteria were as follows: (i) lack any of the demographic and laboratory data described below, (ii) unable to get the blood samples, and (iii) pregnancy. This study was approved by the Ethics Committee of the Second Xiangya Hospital, Central South University, and informed consent was obtained from all patients or legal representatives of the patients. The study employed a two-phase enrollment design to establish and validate the population PK model. Initial model development utilized patient data collected between January 2022 and December 2023. Following the establishment of the final population PK model, a distinct cohort of patients was prospectively recruited between November 2024 and March 2025 to conduct an external validation.
The supernatant was immediately stored at −80℃ until analysis.
Plasma samples (200 µL) were extracted by protein precipitation with MARG-1A (500 µL), after vortex oscillation for 1 minute, centrifugation at 14,500 r/min for 8 min, and 600 µL of the clear supernatant was transferred into autosampler vials for further analysis.
One-, two-, and three-compartment models with first-order elimination were evaluated as potential structural PK models based on changes in the objective function value (OFV, −2 × log-likelihood) and goodness-of-fit plots. The inter-individual variability of the PK parameters was evaluated using an exponential model. Residual variability was selected with additive, proportional, and combined error models:
The following patient covariates were tested for their influence on the PK parameters of teicoplanin: age, sex, body weight, ALT, AST, TBIL, DBIL, ALB, baseline, and real-time CrCL. The stepwise covariate modeling (SCM) approach was used to test the covariate model in this analysis. A reduction in OFVs of ≥3.84 was considered to be statistically significant (P < 0.05) for the inclusion of one covariate in the forward inclusion steps, and an increase in OFVs of ≥6.63 was considered to be statistically significant (P < 0.01) in the backward elimination steps.
The validity of the final model was assessed by visual inspection of goodness-of-fit (GoF) plots, including observed concentrations versus individual predictions (IPRED), observed concentrations versus population predictions (PRED), and conditional weighted residuals (CWRES) versus population predictions and time. Next, the accuracy and stability of the final model were evaluated using the bootstrap method. The medians and 95% confidence intervals of the PK parameter estimates were obtained from the 1,000 bootstrap runs. The model was considered stable if the typical population values for the PK parameters of the final model were within the 95% confidence interval of the bootstrap results, and the biases were less than 10% with no bias across zero.

MRSA = conditions: patients achieving AUC24h/MIC ≥900; cited from earlier work
plasma albumin = conditions: ref not given; cited from earlier work
Text: After that, a suitable maintaining dose should be employed to sustain the target concentration.

[3] = cited from earlier work
[4] = renal transplant patients, 306 plasma samples from 79 patients

| Substance | incidence of neurological toxicity ([1]; other patients) | incidence of pigment toxicity ([1]; other patients) | incidence of neurological toxicity ([1]; renal transplant patients) | incidence of pigment toxicity ([1]; renal transplant patients) | CL, bootstrap estimate (median) ([2]; bootstrap method (n = 992)) | CLd, bootstrap estimate (median) ([2]; bootstrap method (n = 992)) | CrCLCL, bootstrap estimate (median) ([2]; bootstrap method (n = 992)) | Vc, bootstrap estimate (median) ([2]; bootstrap method (n = 992)) | Vp, bootstrap estimate (median) ([2]; bootstrap method (n = 992)) | distribution (volume) in the present model ([2]; renal transplant patients) | CLd, clearance between the central compartment and peripheral compartment (final model estimate) [2, 4] | Vc, volume distribution in the central compartment (final model estimate) [2, 4] | Vp, volume in the peripheral compartment (final model estimate) [2, 4] | CL, clearance in the central compartment (final model estimate, typical value) ([2]; renal transplant patients, iv 400 mg q12h x3 then 400 mg once daily, 1 h infusion, 306 plasma samples from 79 patients, 2LC-MS/MS, CL=0.711×(CrCL÷17)^0.198) | treatment success rate (MRSA) | plasma protein binding rate (plasma albumin) | distribution (volume) in previous models ([3]; mostly critically ill patients) | CL in critically ill patients ([3]; previously reported values, critically ill patients, no ref printed at the value) |
| --- | --- | --- | --- | --- | --- | --- | --- | --- | --- | --- | --- | --- | --- | --- | --- | --- | --- | --- |
| polymyxin B | 27% | 15% | 63.4% | 51.5% | – | – | – | – | – | – | – | – | – | – | – | – | – | – |
| teicoplanin | – | – | – | – | 0.714 L/h | 4.22 L/h | 0.196 | 11.3 L | 35 L | 46.6 L | 4.22 L/h | 11.3 L | 35.3 L | 0.711 L/h | 87% | about 90% | 60.5 to 121.1 L | 0.838 to 1.03 L/h |
